“Also recorded” adds a separate entry of the source. Read-outs that look alike come from different tables or passages of the source. One block for each compound: values may come before it. Non-standard residues stand in square brackets, D forms with d. Residues, ends and D or L forms follow the SMILES beside them. *: point of attachment. AFC = O=c1cc(C(F)(F)F)c2ccc(N*)cc2o1; Tic = O=C(O)[C@@H]1Cc2ccccc2CN1; AMC = Cc1cc(=O)oc2cc(N*)ccc12; Cbz = O=C(OCc1ccccc1)*; AEEA = NCCOCCOCC(=O)O
Tests used:
[1] = molecular target: T1, DPPIV (Homo sapiens, UniProt P27487); experiment: DPPIV inhibition constants (Ki) with Tic-Pro-AFC substrate; format: biochemical; settings: for Ki: substrate Tic-Pro-AFC; for Selectivity Ki (DPPIV) / Ki (APCE-FAP): ratio of Ki values
T1 sequence (P27487 whole entry, species assumed): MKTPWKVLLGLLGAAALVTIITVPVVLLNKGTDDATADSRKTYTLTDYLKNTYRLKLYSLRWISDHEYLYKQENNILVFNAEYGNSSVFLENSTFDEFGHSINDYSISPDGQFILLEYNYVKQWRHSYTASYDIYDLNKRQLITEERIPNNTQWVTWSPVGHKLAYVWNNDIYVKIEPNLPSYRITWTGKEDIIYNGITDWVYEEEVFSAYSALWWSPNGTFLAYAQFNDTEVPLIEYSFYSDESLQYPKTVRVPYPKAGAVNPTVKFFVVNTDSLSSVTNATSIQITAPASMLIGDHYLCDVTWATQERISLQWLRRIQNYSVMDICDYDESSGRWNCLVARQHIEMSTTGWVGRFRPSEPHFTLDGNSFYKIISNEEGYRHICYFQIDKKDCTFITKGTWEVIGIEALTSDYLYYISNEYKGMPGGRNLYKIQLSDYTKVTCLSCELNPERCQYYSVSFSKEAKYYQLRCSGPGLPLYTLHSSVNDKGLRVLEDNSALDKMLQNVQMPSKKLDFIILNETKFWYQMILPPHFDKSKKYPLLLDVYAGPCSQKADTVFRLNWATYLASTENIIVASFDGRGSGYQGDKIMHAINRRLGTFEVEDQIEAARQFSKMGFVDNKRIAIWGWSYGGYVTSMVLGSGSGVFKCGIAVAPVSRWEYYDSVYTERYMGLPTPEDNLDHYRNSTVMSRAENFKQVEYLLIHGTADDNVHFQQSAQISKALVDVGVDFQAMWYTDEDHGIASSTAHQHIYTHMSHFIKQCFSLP
Procedure: (§1) For accurate assessment of kinetic parameters, saturating concentrations of substrate were used. For standard curves, dilutions of AFC (7-amino-4-trifluoromethylcoumarin) were prepared in the same assay buffer and corresponding fluorescence was measured.

[2] = molecular target: T2, APCE/FAP (Homo sapiens, UniProt Q12884); experiment: APCE/FAP inhibition constants (Ki) with Tic-Pro-AFC substrate; format: biochemical; settings: for Ki: substrate Tic-Pro-AFC
T2 construct: absence of an about 26-residue amino terminal peptide constituting the transmembrane and intracytosolic domains; from tissue
T2 sequence (Q12884 24-760 limits assumed): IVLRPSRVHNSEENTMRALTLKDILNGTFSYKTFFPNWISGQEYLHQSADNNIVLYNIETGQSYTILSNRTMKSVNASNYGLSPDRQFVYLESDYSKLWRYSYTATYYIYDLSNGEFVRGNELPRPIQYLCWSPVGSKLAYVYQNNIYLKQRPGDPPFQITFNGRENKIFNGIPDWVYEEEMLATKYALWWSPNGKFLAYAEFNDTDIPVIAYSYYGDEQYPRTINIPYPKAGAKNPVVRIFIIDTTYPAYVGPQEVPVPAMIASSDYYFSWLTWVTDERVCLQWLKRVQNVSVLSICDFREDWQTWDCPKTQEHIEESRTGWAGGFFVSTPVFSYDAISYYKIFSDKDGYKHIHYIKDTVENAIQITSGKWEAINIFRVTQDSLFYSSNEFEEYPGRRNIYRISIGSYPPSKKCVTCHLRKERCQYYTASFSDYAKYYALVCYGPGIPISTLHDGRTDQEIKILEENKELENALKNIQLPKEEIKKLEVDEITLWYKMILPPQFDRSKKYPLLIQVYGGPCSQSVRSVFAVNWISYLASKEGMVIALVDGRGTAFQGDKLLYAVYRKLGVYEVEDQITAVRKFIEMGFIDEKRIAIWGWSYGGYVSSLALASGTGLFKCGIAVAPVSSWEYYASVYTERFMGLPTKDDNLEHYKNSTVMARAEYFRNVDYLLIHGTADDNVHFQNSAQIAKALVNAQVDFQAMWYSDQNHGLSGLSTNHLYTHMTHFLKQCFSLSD
Procedure: as §1

[3] = molecular target: T3, POP (Homo sapiens, UniProt P48147); experiment: POP inhibition constants (Ki) with Tic-Pro-AFC substrate; format: biochemical; settings: for Selectivity Ki (POP) / Ki (APCE/FAP): ratio of Ki values; for Ki: substrate Tic-Pro-AFC
T3 sequence (P48147 1-710): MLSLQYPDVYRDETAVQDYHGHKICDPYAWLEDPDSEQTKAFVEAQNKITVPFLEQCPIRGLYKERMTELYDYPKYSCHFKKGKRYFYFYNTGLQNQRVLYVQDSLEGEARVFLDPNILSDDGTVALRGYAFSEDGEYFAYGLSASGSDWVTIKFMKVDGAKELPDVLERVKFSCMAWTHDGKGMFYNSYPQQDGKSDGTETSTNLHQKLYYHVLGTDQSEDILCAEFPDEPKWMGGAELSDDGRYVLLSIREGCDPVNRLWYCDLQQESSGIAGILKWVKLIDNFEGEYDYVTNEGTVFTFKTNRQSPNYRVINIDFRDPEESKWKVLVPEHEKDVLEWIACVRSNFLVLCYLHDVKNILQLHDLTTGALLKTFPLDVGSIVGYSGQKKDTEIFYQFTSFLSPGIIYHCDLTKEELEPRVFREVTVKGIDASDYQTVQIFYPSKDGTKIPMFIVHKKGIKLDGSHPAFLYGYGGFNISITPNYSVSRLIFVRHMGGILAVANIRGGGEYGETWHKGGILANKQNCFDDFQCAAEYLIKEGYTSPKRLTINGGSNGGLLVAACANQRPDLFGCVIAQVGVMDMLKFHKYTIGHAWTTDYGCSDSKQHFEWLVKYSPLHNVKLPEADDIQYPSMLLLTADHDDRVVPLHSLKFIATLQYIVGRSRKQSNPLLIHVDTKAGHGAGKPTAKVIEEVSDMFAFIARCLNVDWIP
Procedure: as §1

[4] = molecular target: T1, DPPIV; experiment: Cleavage kinetics of fluorescent substrates by DPPIV; format: biochemical; settings: for cleavage of substrate by DPPIV: result in words
Procedure: (§2) APCE (^˜4 μg), DPPIV (^˜2 μg) or POP (^˜2 μg) was incubated in 25 mM sodium phosphate buffer, pH 7.5, containing 1.0 mM EDTA and 2% methanol in a total volume of 200 μl for 20 min at 22° C. Using Tic-Pro-AFC (10-300 μM for APCE, 5-200 μM for DPPIV, and 40-800 μM for POP), fluorescence was monitored with time at excitation/emission wavelengths of 400/508 nm, using a black-sided 96-well plate in a BIO-TEK FL600 fluorescence plate reader. For accurate assessment of kinetic parameters, saturating concentrations of substrate were used. For standard curves, dilutions of AFC (7-amino-4-trifluoromethylcoumarin) were prepared in the same assay buffer and corresponding fluorescence was measured.
(§3) Characterization of Tic-Pro-AFC as substrate: A new substrate, Tic-Pro-AFC, was used for assessing APCE/FAP, DPPIV and POP, each belonging to the same clade of prolyl-specific serine proteinases and each with activity towards unique substrates. […] Based on Ki, Km and kcat values in Tables 6 and 7, Tic-Pro-AFC was readily cleaved by each enzyme, with kcat/Km for APCE/FAP being slightly higher than POP and slightly lower than DPPIV. […] Thus, Tic-Pro-AFC was chosen as the substrate for comparing the potency and selectivity of the inhibitors towards APCE/FAP, DPPIV, or POP.

[5] = molecular target: T2, APCE/FAP; experiment: Cleavage kinetics of fluorescent substrates by APCE/FAP; format: biochemical
Procedure: as §2, §3

[6] = Aqueous solubility; format: physicochemical; settings: result in words
Procedure: The specific POP inhibitor, J94 (acetyl-Lys-Leu-Arg-(L)boroPro (Ki<100 nM)); and the substrate, C95 (acetyl-Arg-AEEA-Gly-Pro-AMC), were designed, synthesized and characterized by us as previously reported. […] The inhibitors (J94 and M83) were dissolved in Hanks Balanced Salt Solution (HBSS; Gibco) at 1 mM and stored at −20° C. The substrate (C95) was dissolved in HBSS at 2.5 mM and stored at 4° C. […] Tic-Pro-AFC, a prolyl-specific fluorescent substrate, was supplied by Vantia (Southampton, England).

[7] = system: HMVEC-d; experiment: Tube formation assay of HMVEC-d on Matrigel; format: cell-based, human; settings: 50 μM inhibitor
Procedure: For tube formation assays, Matrigel™ (BD Biosciences, San Jose, Calif.) 80 μl was added to black-sided, clear bottom 96-well plates as above and allowed to gel at 37° C. for 30 minutes. Then 15,000 HMVEC-d in EC media without serum were added and allowed to settle for 1 hour. […] The reader was maintained at 37° C. and fluorescence was measured with time for 18 hours.

[8] = system: HCT116 human colon cancer xenografts; experiment: HCT116 human colon cancer xenografts in immunodeficient mice; format: in vivo; settings: 28-day treatment period
[9] = molecular target: T3, POP; experiment: Cleavage kinetics of fluorescent substrates by POP; format: biochemical; settings: for Km / kcat: substrate cleaved by POP
Procedure: as §2, §3

[10] = molecular target: T1, DPPIV; settings: result in words; cited from earlier work
[11] = before cyclizing and losing inhibitory activity; cited from earlier work

Compound: CC(=O)N[C@@H](CCCNC(=N)N)C(=O)NCCOCCOCC(=O)N[C@H](C)C(=O)N1CCC[C@@H]1B(O)O (single isomer, unassigned) [Ac-Arg-peg-D-Ala-D-boroPro]
Ki [1]: 20500 nM | Ki [2]: 189 nM

Compound: CC(=O)N[C@@H](CCCNC(=N)N)C(=O)NCC(=O)NCC(=O)N1CCC[C@H]1B(O)O [Ac-Arg-Gly-Gly-L-boroPro]
Selectivity Ki (POP) / Ki (APCE/FAP) [3]: 0.1 | Ki [3]: 1.6 nM

Compound: CC(=O)N[C@@H](CCCCN)C(=O)N[C@@H](CC(C)C)C(=O)N[C@@H](CCCNC(=N)N)C(=O)N1CCC[C@H]1C(=O)Nc1ccc2c(C)cc(=O)oc2c1 [Compound L96, acetyl-Lys-Leu-Arg-Pro-AMC] (Ac-KLRP-{AMC})
Km [9]: 30 ± 3 µM | kcat [9]: 2.4 ± 0.1 s⁻¹ | cleavage of substrate by DPPIV [4]: Neither DPPIV nor APCE/FAP cleaved | cleavage of substrate by APCE/FAP ([5]; result in words): Neither DPPIV nor APCE/FAP cleaved

Compound: N[C@@H](CCC(=O)O)C(=O)N1CCC[C@H]1B(O)O [Glu-boroPro, glutamyl-proline boronic acid]
inhibition of DPPIV [10]: also inhibits | plasma half-life [11]: exceptionally short

Compound: CC(C)[C@H](N)C(=O)N1CCC[C@H]1B(O)O [Val-boroPro]
inhibition of DPPIV [10]: also inhibit

Compound: Ac-Arg-Gly-Gly-DL-boroPro
Selectivity Ki (DPPIV) / Ki (APCE-FAP) [1]: 14.9 | Ki [1]: 341 nM | Ki [2]: 22.9 nM

Compound: Ac-Arg-peg-D-Ala-DL(25:75%)-boroPro
Ki [2]: 7.7 nM

Compound: Ac-Arg-peg-D-Ala-DL(50:50%)-boroPro
Selectivity Ki (DPPIV) / Ki (APCE-FAP) [1]: 1176 | Ki [1]: 11200 nM | Ki [2]: 9.5 nM

Now from value to compound, other results behind:

Selectivity Ki (DPPIV) / Ki (APCE-FAP) [1]: 5.2 | Ki [1]: 7130 nM | Ki [2]: 1380 nM | Selectivity Ki (POP) / Ki (APCE/FAP) [3]: 0.02 | Ki [3]: 23.9 nM
Compound: CC(=O)N[C@@H](CCCNC(=N)N)C(=O)NCCOCCOCC(=O)N[C@H](CC(=O)O)C(=O)N1CCC[C@H]1B(O)O [Ac-Arg-peg-D-Asp-L-boroPro]

Ki [1]: 440 nM | Ki [2]: 1.8 nM | Selectivity Ki (POP) / Ki (APCE/FAP) [3]: 1.2 | Ki [3]: 2.1 nM
Compound: CC(=O)N[C@@H](CCCNC(=N)N)C(=O)NCCOCCOCC(=O)NCC(=O)N1CCC[C@H]1B(O)O [Ac-Arg-peg-Gly-L-boroPro]

Ki [1]: 861 nM | Ki [2]: 2.7 nM | Selectivity Ki (POP) / Ki (APCE/FAP) [3]: 1.1 | Ki [3]: 2.9 nM
Compound: CC(=O)N[C@@H](CCCNC(=N)N)C(=O)NCCOCCOCC(=O)N[C@@H](CO)C(=O)NCC(=O)N1CCC[C@H]1B(O)O [Ac-Arg-peg-Ser-Gly-L-boroPro]

cleavage of substrate by DPPIV [4]: neither cleaved | solubility in aqueous buffers [6]: soluble in aqueous buffers
Compound: CC(=O)N[C@@H](CCCNC(=N)N)C(=O)NCCOCCOCC(=O)NCC(=O)N1CCC[C@H]1C(=O)Nc1ccc2c(C)cc(=O)oc2c1 [Compound C95, acetyl-Arg-AEEA-Gly-Pro-AMC] (Ac-R[AEEA]GP-{AMC})
relative rate of cleavage by FAP and POP ([5]; FAP and POP at equimolar concentrations): equivalent rates; also recorded: cleaved at equal rates by FAP or POP

inhibition of DPPIV ([1]; result in words): nor was it inhibited | Ki [3]: < 100 nM | solubility in aqueous buffers [6]: soluble in aqueous buffers
Compound: CC(=O)N[C@@H](CCCCN)C(=O)N[C@@H](CC(C)C)C(=O)N[C@@H](CCCNC(=N)N)C(=O)N1CCC[C@H]1B(O)O [Compound J94, acetyl-Lys-Leu-Arg-(L)boroPro]
formation of capillary-like tubes [7]: inhibited formation of capillary-like tubes; also recorded: abrogated the genesis of capillary-like tubes | inhibition of FAP ([2]; result in words): none towards FAP; also recorded: no effect on FAP | diminished cancer growth [8]: ~75%

cleavage of substrate by POP ([9]; result in words): not cleaved by POP
Compound: Cc1cc(=O)oc2cc(NC(=O)[C@@H]3CCCN3C(=O)CN)ccc12 [GP-AMC] (H-Gly-Pro-{AMC})

Km [9]: 161 ± 12 µM | kcat [9]: 0.76 ± 0.01 s⁻¹ | Km ([4]; substrate cleaved by DPPIV): 33 ± 2 µM | kcat ([4]; substrate cleaved by DPPIV): 1.49 ± 0.12 s⁻¹ | Km ([5]; substrate cleaved by APCE/FAP): 53 ± 5 µM | kcat ([5]; substrate cleaved by APCE/FAP): 1.19 ± 0.11 s⁻¹
Compound: O=C(Nc1ccc2c(C(F)(F)F)cc(=O)oc2c1)[C@@H]1CCCN1C(=O)[C@@H]1Cc2ccccc2CN1 [Tic-Pro-AFC] (H-[Tic]-Pro-{AFC})

cleavage of substrate by DPPIV [4]: not cleaved by DPPIV
Compound: Cc1cc(=O)oc2cc(NC(=O)[C@@H]3CCCN3C(=O)CNC(=O)OCc3ccccc3)ccc12 [Z-GP-AMC, benzyloxycarbonyl (Z)-GP-AMC] (Cbz-Gly-Pro-{AMC})

Ki [2]: 18.3 nM
Compound: Ac-Arg-peg-D-Ala-DL(75:25%)-boroPro

Selectivity Ki (DPPIV) / Ki (APCE-FAP) [1]: 371 | Ki [1]: 1150 nM | Ki [2]: 3.1 nM
Compound: Ac-Arg-peg-Gly-DL-boroPro
